Measurements published in BindingDB's records for patent US20230322715 (University of California, 2023).

Legend:
Assay in all cases: In Vitro Inhibition Assay Method
[1] = biological target: RNA demethylase ALKBH5 (Homo sapiens, UniProt Q6P6C2)
Protocol: (§1) Inhibitors were added in concentrations ranging from 0.008-40 μM; all inhibitors were dissolved in DMSO and added to a final concentration of 0.2% DMSO. […] After incubation at room temperature for 2 hours, the plates were left at 4 C. overnight (16 hours) to allow DFHBI-1T to bind to A7-Broccoli RNA. […] Sigmoidal dose-response curves were fitted in GraphPad Prism 6.

[2] = biological target: Alpha-ketoglutarate-dependent dioxygenase FTO (Homo sapiens, UniProt Q9C0B1)
Protocol: as §1

[3] = biological target: T1, YTH domain-containing family protein 2 (Homo sapiens, UniProt Q9Y5A9)
T1 sequence (Q9Y5A9 whole entry): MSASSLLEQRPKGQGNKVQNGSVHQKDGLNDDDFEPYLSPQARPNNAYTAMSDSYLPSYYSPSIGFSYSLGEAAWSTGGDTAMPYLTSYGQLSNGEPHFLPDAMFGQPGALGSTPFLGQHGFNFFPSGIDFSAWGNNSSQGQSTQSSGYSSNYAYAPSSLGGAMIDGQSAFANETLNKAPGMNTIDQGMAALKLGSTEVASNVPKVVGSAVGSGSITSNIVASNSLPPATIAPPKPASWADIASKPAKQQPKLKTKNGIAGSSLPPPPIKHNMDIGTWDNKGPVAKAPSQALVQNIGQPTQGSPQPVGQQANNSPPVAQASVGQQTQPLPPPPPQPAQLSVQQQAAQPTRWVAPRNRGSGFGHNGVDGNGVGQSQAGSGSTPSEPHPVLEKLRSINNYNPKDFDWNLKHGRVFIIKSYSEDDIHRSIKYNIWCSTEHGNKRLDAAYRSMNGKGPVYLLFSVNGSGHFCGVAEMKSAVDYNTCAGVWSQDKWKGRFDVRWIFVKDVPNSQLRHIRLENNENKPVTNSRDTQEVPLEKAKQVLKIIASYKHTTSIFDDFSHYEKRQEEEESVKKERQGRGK
Protocol: as §1

[4] = biological target: T2, YTH domain-containing family protein 1 (Homo sapiens, UniProt Q9BYJ9)
T2 sequence (Q9BYJ9 whole entry): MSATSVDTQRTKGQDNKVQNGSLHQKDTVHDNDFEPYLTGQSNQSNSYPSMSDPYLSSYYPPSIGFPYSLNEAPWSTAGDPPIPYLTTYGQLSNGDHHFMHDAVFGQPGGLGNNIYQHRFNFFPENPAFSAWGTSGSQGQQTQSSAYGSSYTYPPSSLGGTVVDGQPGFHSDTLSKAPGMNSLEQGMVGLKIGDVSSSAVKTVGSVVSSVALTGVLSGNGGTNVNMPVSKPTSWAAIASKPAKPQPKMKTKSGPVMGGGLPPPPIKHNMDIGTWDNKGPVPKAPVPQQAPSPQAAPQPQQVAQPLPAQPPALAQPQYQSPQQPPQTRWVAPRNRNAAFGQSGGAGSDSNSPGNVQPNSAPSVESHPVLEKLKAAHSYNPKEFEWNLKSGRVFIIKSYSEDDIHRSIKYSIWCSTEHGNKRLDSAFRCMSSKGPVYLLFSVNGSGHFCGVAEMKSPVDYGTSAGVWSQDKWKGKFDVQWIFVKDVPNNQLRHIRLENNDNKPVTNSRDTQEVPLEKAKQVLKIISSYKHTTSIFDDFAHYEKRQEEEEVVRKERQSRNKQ
Protocol: as §1

Chain of RNA demethylase ALKBH5 (Q6P6C2 whole entry): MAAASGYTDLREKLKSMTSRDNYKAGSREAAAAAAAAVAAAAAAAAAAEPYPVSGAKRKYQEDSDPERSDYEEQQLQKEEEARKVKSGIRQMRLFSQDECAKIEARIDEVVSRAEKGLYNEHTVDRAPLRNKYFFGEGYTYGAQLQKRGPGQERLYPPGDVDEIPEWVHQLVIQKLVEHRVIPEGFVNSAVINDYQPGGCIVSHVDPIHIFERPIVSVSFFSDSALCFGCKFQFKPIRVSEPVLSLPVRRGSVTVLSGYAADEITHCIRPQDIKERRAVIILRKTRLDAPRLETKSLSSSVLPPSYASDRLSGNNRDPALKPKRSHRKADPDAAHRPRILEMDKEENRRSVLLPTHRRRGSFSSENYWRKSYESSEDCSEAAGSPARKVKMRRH
Chain of Alpha-ketoglutarate-dependent dioxygenase FTO (Q9C0B1 whole entry): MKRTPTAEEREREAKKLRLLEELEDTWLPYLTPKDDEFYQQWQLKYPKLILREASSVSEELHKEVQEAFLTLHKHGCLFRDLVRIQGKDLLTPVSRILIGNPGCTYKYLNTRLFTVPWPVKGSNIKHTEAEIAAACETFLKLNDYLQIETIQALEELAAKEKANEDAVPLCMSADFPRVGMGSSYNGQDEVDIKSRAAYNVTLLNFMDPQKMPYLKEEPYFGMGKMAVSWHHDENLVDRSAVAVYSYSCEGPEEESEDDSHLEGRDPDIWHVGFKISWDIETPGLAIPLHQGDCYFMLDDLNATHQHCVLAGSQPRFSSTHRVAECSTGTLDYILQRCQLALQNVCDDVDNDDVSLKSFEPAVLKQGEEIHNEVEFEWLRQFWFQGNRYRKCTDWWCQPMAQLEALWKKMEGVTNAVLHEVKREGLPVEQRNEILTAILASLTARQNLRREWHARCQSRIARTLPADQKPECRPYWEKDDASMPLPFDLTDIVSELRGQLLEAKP

| IC50 [1] | IC50 [2] | Ki [3] | Ki [4] | Structure (SMILES) |
| --- | --- | --- | --- | --- |
| 2600 nM | > 40000 nM |  |  | O=S(=O)(Nc1ccc(Cl)c(Cl)c1)c1ccc(OC(F)(F)F)cc1 [US20230322715, Compound TR-ALKBH5-33] |
| 450 nM | > 40000 nM |  |  | O=C(C1CC1)N1CCN(S(=O)(=O)c2ccc(OC(F)(F)F)cc2)CC1 [US20230322715, Compound TR-ALKBH5-41] |
|  |  | 5.59 nM | 13.4 nM | CSc1ccccc1Nc1ccc(CNC2CC2)cn1 [US20230322715, Compound TR-YTH-11] |
|  |  | 0.15 nM | 0.473 nM | COc1cc(Nc2ccc(CNC3CC3)cn2)cc(OC)c1 [US20230322715, Compound TR-YTH-13] |
|  |  | 0.128 nM | 0.399 nM | Fc1ccc(Nc2ccc(CNC3CC3)cn2)c(F)n1 [US20230322715, Compound TR-YTH-14] |
|  |  | 0.333 nM | 0.605 nM | Cc1ccc(Nc2ccc(CN(C)C)cn2)cc1C [US20230322715, Compound TR-YTH-17] |
